From patent US8242275B2, “Bicyclic pyrazole compounds as antibacterial agents” (Janssen Pharmaceutica NV, priority 2005, dated 2012)
≈ marks a conversion by molar mass, not a printed value. Where two headings read alike, the source gives them in different places.

Columns and labels:
[1] = tested on: CipR MRSA OC4222; assay: Resistant strains assay (broth microdilution MIC); assay type: cell-based; details: Staphylococcus aureus; CipR MRSA OC4222; read-out: MIC, Column G
From the text: (§1) Testing protocols followed NCCLS methodology for broth microdilution assays.

[2] = tested on: S. aureus ATCC13709; assay: In vitro antibacterial activity (MIC assay), broth microdilution; assay type: cell-based; details: Staphylococcus aureus, ATCC13709; read-out: S. aureus ATCC13709 MIC
How it was run: (§2)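 Bacteria at roughly 5×10^5 CFU/mL final were grown 16–24 h at 35° C in wells holding 2-fold serial dilutions (11 points) of compound prepared in 100% DMSO, following NCCLS M7-A5. MIC, in μg/mL, is the concentration that stops visible growth relative to untreated wells.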

[3] = tested on: E. coli KL-16 (GSC strain 4245); assay: as above; assay type: cell-based; details: Escherichia coli
How it was run: as §2

[4] = tested on: S. pneumoniae ATCC49619; assay: as above; assay type: cell-based; details: Streptococcus pneumoniae, ATCC49619; read-out: S. pneumoniae ATCC49619 MIC
How it was run: as §2

[5] = molecular target: T1, E. coli topoisomerase IV (Escherichia coli, UniProt P0AFI2+P20083); assay: Topoisomerase IV inhibition assay (relaxation); assay type: biochemical
T1 construct: purchased John Innes Enterprises Ltd. (John Innes Centre, UK)
Description: Inhibition of the relaxation activity of E. coli topoisomerase IV was determined using enzyme, buffers and substrates received from John Innes Enterprises Ltd. (John Innes Centre, UK). The reactions were performed according to the manufacturer's directions, with the following modifications.
DNA relaxation reactions were carried out in a total reaction volume of 20 μL, containing 300 ng of supercoiled pBR322, 40 mM HEPES-KOH (pH 7.6), 100 mM potassium glutamate, 10 mM Mg(OAc)2, 10 mM DTT, 4 μg/mL tRNA, 2 mM ATP, and 50 μg/mL BSA. Compounds, diluted in 10% DMSO, were added to the reaction mixture to reach a final concentration of 0.5% DMSO. Enzyme was diluted to 0.45 unit/μL in a solution of 40 mM HEPES-KOH (pH 7.6), 150 mM potassium glutamate, 1 mM DTT, 1 mM EDTA, and 40% glycerol. Diluted enzyme (0.9 unit) was added to each reaction.
The reactions were incubated at 37° C. for 45 min. The reactions were then cooled to 0° C. followed by addition of 3 μL of 40% glycerol, 100 mM Tris-HCl (pH 7.5), 50 mM EDTA, 0.5% SDS and 0.1% bromophenol blue. Samples were separated on 1.0% agarose gels. Gels were stained with Ethidium bromide and photographed with a Stratagene Eagle Eye II.

[6] = molecular target: T2, E. coli DNA gyrase (Escherichia coli, UniProt P0AES4+P0AES6); assay: DNA gyrase inhibition assay (supercoiling); assay type: biochemical
T2 construct: purchased John Innes Enterprises Ltd. (John Innes Centre, UK)
How it was run: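 Agarose-gel (1.0%, ethidium-stained) readout of supercoiled versus relaxed pBR322 after 30 min at 37° C. Each reaction held 250 ng DNA, 0.2 unit enzyme, 1 mM ATP, 4 mM MgCl2, 24 mM KCl in 35 mM Tris-HCl pH 7.5, and compound at 0.5% DMSO final.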

[7] = tested on: CipR MRSA OC4159; assay: Resistant strains assay (broth microdilution MIC); assay type: cell-based; details: Staphylococcus aureus, read-out: MIC, Column F
From the text: as §1

[8] = tested on: MRSA OC2878; assay: Resistant strains assay (broth microdilution MIC); assay type: cell-based; details: Staphylococcus aureus; MRSA OC2878; read-out: MIC, Column D
From the text: as §1

[9] = tested on: MRSA OC3726 (COL); assay: Resistant strains assay (broth microdilution MIC); assay type: cell-based; details: Staphylococcus aureus; MRSA OC3726 (COL); read-out: MIC, Column C
From the text: as §1

[10] = tested on: CipR MRSA OC5273; assay: Resistant strains assay (broth microdilution MIC); assay type: cell-based; details: Staphylococcus aureus, read-out: MIC, Column H
From the text: as §1

[11] = tested on: MSSA ATCC13709 (Smith); assay: Resistant strains assay (broth microdilution MIC); assay type: cell-based; details: Staphylococcus aureus
Description: (§3) Compounds of the present invention were tested for activity against susceptible and resistant bacterial strains in vitro, and activity was compared to known anti-bacterial agents. Testing protocols followed NCCLS methodology for broth microdilution assays. MIC values in μg/mL are presented in Table 3 for the following strains: Column A: MSSA ATCC13709 (Smith); Column B: MSSA ATCC 29213; Column C: MRSA OC3726 (COL); Column D: MRSA OC2878.

[12] = tested on: MSSA ATCC 29213; assay: Resistant strains assay (broth microdilution MIC); assay type: cell-based; details: Staphylococcus aureus, read-out: MIC, Column B
Description: as §3

[13] = tested on: CipR MRSA OC3946; assay: Resistant strains assay (broth microdilution MIC); assay type: cell-based; details: Staphylococcus aureus; CipR MRSA OC3946; read-out: MIC, Column E
Description: as §3
MIC values in μg/mL are presented in Table 4 for the following strains: Column E: CipR MRSA OC3946; Column F: CipR MRSA OC4159; Column G: CipR MRSA OC4222; Column H: CipR MRSA OC5273.

[14] = E. coli topoisomerase IV relaxation, visual inspection of gels, read-out: Topoisomerase IV IC50 (converted)
[15] = E. coli DNA gyrase supercoiling, visual inspection of gels, read-out: DNA Gyrase IC50 (converted)

T2 sequence (P0AES4 whole entry, one chain of several): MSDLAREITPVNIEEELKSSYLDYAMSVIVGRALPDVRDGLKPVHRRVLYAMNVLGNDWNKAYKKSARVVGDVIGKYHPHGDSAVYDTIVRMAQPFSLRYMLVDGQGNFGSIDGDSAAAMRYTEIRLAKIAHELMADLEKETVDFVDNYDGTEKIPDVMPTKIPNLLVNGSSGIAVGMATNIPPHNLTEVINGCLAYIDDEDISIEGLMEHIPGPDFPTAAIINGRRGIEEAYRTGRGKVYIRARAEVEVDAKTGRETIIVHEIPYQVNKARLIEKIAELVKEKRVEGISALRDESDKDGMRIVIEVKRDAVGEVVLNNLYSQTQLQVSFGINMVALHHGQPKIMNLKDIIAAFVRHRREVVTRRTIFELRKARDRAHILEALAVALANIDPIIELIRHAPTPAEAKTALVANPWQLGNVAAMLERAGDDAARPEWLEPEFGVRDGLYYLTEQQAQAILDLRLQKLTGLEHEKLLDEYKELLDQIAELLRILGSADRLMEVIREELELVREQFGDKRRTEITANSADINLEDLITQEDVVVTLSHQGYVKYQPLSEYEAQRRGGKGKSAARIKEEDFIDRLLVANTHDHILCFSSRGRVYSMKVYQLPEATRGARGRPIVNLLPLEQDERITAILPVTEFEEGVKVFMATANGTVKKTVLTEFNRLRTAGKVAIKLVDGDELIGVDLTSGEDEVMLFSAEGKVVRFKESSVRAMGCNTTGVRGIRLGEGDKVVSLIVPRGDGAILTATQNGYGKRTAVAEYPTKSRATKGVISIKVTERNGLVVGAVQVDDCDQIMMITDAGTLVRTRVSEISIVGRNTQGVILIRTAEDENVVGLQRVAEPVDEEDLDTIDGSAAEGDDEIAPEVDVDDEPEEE
T1 sequence (P0AFI2 whole entry): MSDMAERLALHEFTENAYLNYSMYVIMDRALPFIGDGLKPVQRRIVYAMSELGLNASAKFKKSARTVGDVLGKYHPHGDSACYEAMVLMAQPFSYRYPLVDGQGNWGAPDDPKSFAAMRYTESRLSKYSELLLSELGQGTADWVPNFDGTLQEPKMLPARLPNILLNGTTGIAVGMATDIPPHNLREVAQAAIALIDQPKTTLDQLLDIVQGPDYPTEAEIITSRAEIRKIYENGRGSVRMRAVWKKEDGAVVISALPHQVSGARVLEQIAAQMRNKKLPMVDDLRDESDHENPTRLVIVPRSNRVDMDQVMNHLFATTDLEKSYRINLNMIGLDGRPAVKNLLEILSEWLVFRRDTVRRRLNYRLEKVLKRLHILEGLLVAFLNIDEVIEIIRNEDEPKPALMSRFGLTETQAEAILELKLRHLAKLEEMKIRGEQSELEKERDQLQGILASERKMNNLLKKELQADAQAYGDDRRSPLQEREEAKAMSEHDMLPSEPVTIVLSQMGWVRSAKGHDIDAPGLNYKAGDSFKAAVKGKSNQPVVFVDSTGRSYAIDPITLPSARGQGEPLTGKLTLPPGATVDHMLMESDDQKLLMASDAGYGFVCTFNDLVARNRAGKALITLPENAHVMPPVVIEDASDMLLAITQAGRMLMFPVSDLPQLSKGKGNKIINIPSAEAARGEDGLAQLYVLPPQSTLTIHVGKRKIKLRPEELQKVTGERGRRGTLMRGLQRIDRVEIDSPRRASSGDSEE
T1 sequence (P20083 whole entry): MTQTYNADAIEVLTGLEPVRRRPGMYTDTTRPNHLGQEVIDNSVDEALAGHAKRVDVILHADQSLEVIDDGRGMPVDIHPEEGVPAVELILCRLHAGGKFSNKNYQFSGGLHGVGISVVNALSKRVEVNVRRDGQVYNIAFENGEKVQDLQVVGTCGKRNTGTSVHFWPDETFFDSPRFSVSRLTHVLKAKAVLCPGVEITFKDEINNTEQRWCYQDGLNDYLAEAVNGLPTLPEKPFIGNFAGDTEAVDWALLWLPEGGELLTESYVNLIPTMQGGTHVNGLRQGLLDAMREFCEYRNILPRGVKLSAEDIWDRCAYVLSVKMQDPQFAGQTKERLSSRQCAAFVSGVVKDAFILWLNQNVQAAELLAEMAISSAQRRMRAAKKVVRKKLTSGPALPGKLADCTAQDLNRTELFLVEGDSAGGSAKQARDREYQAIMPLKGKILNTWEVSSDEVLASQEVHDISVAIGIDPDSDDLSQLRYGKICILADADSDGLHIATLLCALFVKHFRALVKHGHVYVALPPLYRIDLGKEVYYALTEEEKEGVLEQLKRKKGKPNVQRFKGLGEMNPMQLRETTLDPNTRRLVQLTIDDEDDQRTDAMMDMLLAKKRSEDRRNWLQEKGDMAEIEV

Compound | MIC [2] [µg/mL] | MIC [3] [µg/mL] | MIC [4] [µg/mL] | IC50 [5, 14] [nM] | IC50 [6, 15] [nM] | other results
COc1ccc2nccc(-n3cc4c(n3)CCC(NC(=O)c3cc5c(cc3C)SCC(=O)N5)C4)c2c1 (stereo not drawn) [Example 131, 7-Methyl-3-oxo-3,4-dihydro-2H-benzo[1,4]thiazine-6-carboxylic acid [2-(6-methoxy-quinolin-4-yl)-4,5,6,7-tetrahydro-2H-indazol-5-yl]-amide] | 0.5 (≈ 1 µM) | 8 (≈ 16 µM) | 16 (≈ 32 µM) | – | – | MIC [1]: 0.5 µg/mL (≈ 1 µM)
COc1ccc2nccc(-n3cc4c(n3)CCC(NCc3ccc5c(c3)OC(F)(F)O5)C4)c2n1 (stereo not drawn) [Example 38, (2,2-Difluoro-benzo[1,3]dioxol-5-ylmethyl)-[2-(6-methoxy-[1,5]naphthyridin-4-yl)-4,5,6,7-tetrahydro-2H-indazol-5-yl]-amine] | 0.25 (≈ 0.537 µM) | > 128 | 4 (≈ 8.59 µM) | 537 | 4300 | –
CCn1cc(C(=O)O)c(=O)c2cc(F)c(N3CCNCC3)cc21 [Norfloxacin, reference compound] | – | – | – | – | – | MIC [7]: > 128 µg/mL; MIC [8]: 1 µg/mL (≈ 3.13 µM); MIC [9]: 2 µg/mL (≈ 6.26 µM); MIC [1]: > 128 µg/mL; MIC [10]: > 128 µg/mL; MIC [11]: 1 µg/mL (≈ 3.13 µM); MIC [12]: 2 µg/mL (≈ 6.26 µM); MIC [13]: 128 µg/mL (≈ 401 µM)
COc1ccc2nccc(-n3cc4c(n3)CCC(NCc3ccc5c(c3)OCCO5)C4)c2n1 (stereo not drawn) [Example 42, (2,3-Dihydro-benzo[1,4]dioxin-6-ylmethyl)-[2-(6-methoxy-[1,5]naphthyridin-4-yl)-4,5,6,7-tetrahydro-2H-indazol-5-yl]-amine] | 0.03 (≈ 0.0676 µM) | 32 (≈ 72.2 µM) | 0.5 (≈ 1.13 µM) | 564 | 2250 | –
COc1ccc2nccc(-n3cc4c(n3)CCC(NCc3ccc5c(n3)NC(=O)CO5)C4)c2c1 (stereo not drawn) [Example 54, 6-{[2-(6-Methoxy-quinolin-4-yl)-4,5,6,7-tetrahydro-2H-indazol-5-ylamino]-methyl}-4H-pyrido[3,2-b][1,4]oxazin-3-one] | 1 (≈ 2.19 µM) | 2 (≈ 4.38 µM) | 2 (≈ 4.38 µM) | 35 | 131 | –
COc1ccc2nccc(-n3cc4c(n3)CCC(NCCOc3cc(F)cc(F)c3)C4)c2c1 (stereo not drawn) [Example 121] | 1 (≈ 2.22 µM) | 8 (≈ 17.8 µM) | 2 (≈ 4.44 µM) | – | – | IC50 [5]: 277 nM; IC50 [6]: 1110 nM
COc1ccc2nccc(-n3cc4c(n3)CCC(NC(=O)c3ccc5c(c3)OCCO5)C4)c2n1 (stereo not drawn) [Example 1, 2,3-Dihydro-benzo[1,4]dioxine-6-carboxylic acid [2-(6-methoxy-[1,5]naphthyridin-4-yl)-4,5,6,7-tetrahydro-2H-indazol-5-yl]-amide] | 0.5 (≈ 1.09 µM) | > 128 | 8 (≈ 17.5 µM) | > 2190 | > 69900 | –
COc1ccc2nccc(-n3cc4c(n3)CCC(NC(=O)c3cc5c(cc3Br)SCC(=O)N5)C4)c2n1 (stereo not drawn) [Example 113, 7-Bromo-3-oxo-3,4-dihydro-2H-benzo[1,4]thiazine-6-carboxylic acid [2-(6-methoxy-[1,5]naphthyridin-4-yl)-4,5,6,7-tetrahydro-2H-indazol-5-yl]-amide] | 0.125 (≈ 0.221 µM) | 2 (≈ 3.54 µM) | 2 (≈ 3.54 µM) | 442 | 442 | –
COc1ccc2nccc(-n3cc4c(n3)CCC(NC(=O)c3c(F)cc5c(c3F)NC(=O)CS5)C4)c2n1 (stereo not drawn) [Example 109, 5,7-Difluoro-3-oxo-3,4-dihydro-2H-benzo[1,4]thiazine-6-carboxylic acid [2-(6-methoxy-[1,5]naphthyridin-4-yl)-4,5,6,7-tetrahydro-2H-indazol-5-yl]-amide] | 0.125 (≈ 0.239 µM) | > 128 | 4 (≈ 7.65 µM) | – | 1910 | MIC [1]: 0.03 µg/mL (≈ 0.0574 µM)
O=C(O)c1cn(C2CC2)c2cc(N3CCNCC3)c(F)cc2c1=O [Ciprofloxacin, reference compound] | – | – | – | – | – | MIC [11]: 0.25 to 0.5 µg/mL (≈ 0.754 to 1.51 µM); MIC [12]: 0.25 to 0.5 µg/mL (≈ 0.754 to 1.51 µM); MIC [13]: 16 µg/mL (≈ 48.3 µM)
COc1ccc2nccc(-n3cc4c(n3)CCC(NC/C=C/c3ccccc3[N+](=O)[O-])C4)c2n1 (stereo not drawn) [Example 89, [2-(6-Methoxy-[1,5]naphthyridin-4-yl)-4,5,6,7-tetrahydro-2H-indazol-5-yl]-[3-(2-nitro-phenyl)-allyl]-amine] | 2 (≈ 4.38 µM) | 16 (≈ 35 µM) | 2 (≈ 4.38 µM) | 32.9 | 274 | –
COc1ccc2nccc(-n3cc4c(n3)CCC(NC(=O)c3cnc5ccccc5n3)C4)c2n1 (stereo not drawn) [Example 70, Quinoxaline-2-carboxylic acid [2-(6-methoxy-[1,5]naphthyridin-4-yl)-4,5,6,7-tetrahydro-2H-indazol-5-yl]-amide] | 2 (≈ 4.43 µM) | > 128 | 32 (≈ 70.9 µM) | > 2210 | > 70900 | –
COc1ccc2nccc(-n3cc4c(n3)CCC(NCC(=O)Nc3ccc5c(c3)NC(=O)CS5)C4)c2n1 (stereo not drawn) [Example 83, 2-[2-(6-Methoxy-[1,5]naphthyridin-4-yl)-4,5,6,7-tetrahydro-2H-indazol-5-ylamino]-N-(3-oxo-3,4-dihydro-2H-benzo[1,4]thiazin-6-yl)-acetamide] | 2 (≈ 3.88 µM) | > 128 | 32 (≈ 62.1 µM) | 485 | < 485 | –
COc1ccc2nccc(-n3cc4c(n3)CCC(NCc3ccc5c(c3)NCCS5)C4)c2c1 (stereo not drawn) [Example 102] | 0.5 (≈ 1.09 µM) | 8 (≈ 17.5 µM) | 0.5 (≈ 1.09 µM) | 137 | 1090 | –
C[C@@H]1CN(c2c(F)c(N)c3c(=O)c(C(=O)O)cn(C4CC4)c3c2F)C[C@H](C)N1 [Sparfloxacin, reference compound] | – | – | – | – | – | MIC [7]: 16 µg/mL (≈ 40.8 µM); MIC [8]: 0.062 µg/mL (≈ 0.158 µM); MIC [9]: 0.125 µg/mL (≈ 0.319 µM); MIC [1]: 8 µg/mL (≈ 20.4 µM); MIC [10]: 16 µg/mL (≈ 40.8 µM); MIC [11]: 0.062 µg/mL (≈ 0.158 µM); MIC [12]: 0.062 µg/mL (≈ 0.158 µM); MIC [13]: 4 µg/mL (≈ 10.2 µM)
COc1ccc2nccc(-n3cc4c(n3)CCC(NC(=O)C3(c5ccc(Cl)cc5)CCCC3)C4)c2c1 (stereo not drawn) [Example 80, 1-(4-Chloro-phenyl)-cyclopentanecarboxylic acid [2-(6-methoxy-quinolin-4-yl)-4,5,6,7-tetrahydro-2H-indazol-5-yl]-amide] | 8 (≈ 16 µM) | > 128 | 128 (≈ 255 µM) | > 2000 | > 31900 | –
COc1ccc2nccc(-n3cc4c(n3)CCC(NCc3ccc5c(c3)OCO5)C4)c2n1 (stereo not drawn) [Example 37, Benzo[1,3]dioxol-5-ylmethyl-[2-(6-methoxy-[1,5]naphthyridin-4-yl)-4,5,6,7-tetrahydro-2H-indazol-5-yl]-amine] | 0.5 (≈ 1.16 µM) | 32 (≈ 74.5 µM) | 2 (≈ 4.66 µM) | 582 | 582 | –
COc1ccc2nccc(-n3cc4c(n3)CCC(NC(=O)c3c(F)cc5c(c3F)NC(=O)CS5)C4)c2c1 (stereo not drawn) [Example 108, 5,7-Difluoro-3-oxo-3,4-dihydro-2H-benzo[1,4]thiazine-6-carboxylic acid [2-(6-methoxy-quinolin-4-yl)-4,5,6,7-tetrahydro-2H-indazol-5-yl]-amide] | 0.125 (≈ 0.24 µM) | 8 (≈ 15.3 µM) | 1 (≈ 1.92 µM) | – | 1920 | MIC [1]: 0.06 µg/mL (≈ 0.115 µM)
